# Activity calls are given as the source filed them. The calls are words filed in the database; no cut-off is given here.
# Experiments:
# Staphylococcus aureus [1] = assay: Antibacterial activity against methicillin-resistant Staphylococcus aureus clinical isolate M-4 upto 128 ug/ml incubated for 16 to 18 hrs in presence of phosphatidylethanolamine by broth dilution method; format: functional, organism-based; conditions: dose <= 128.0 µg/ml, time 16-18 hrs
# [2] = Toxicity in KM mouse assessed as histological abnormality in spleen at 20 mg/kg, sc measured after 24 hrs by H and E staining based analysis; format: organism-based; conditions: in vivo
# Staphylococcus aureus [3] = assay: Antibacterial activity against methicillin-resistant Staphylococcus aureus clinical isolate M-4 infected in KM mouse assessed as survival rate of bacteria at 10 mg/kg, sc measured after 24 hrs relative to control; format: functional
# [4] = Toxicity in KM mouse assessed as histological abnormality in heart at 20 mg/kg, sc measured after 24 hrs by H and E staining based analysis; format: organism-based; conditions: in vivo
# [5] = Toxicity in KM mouse assessed as change in creatinine level at 20 mg/kg, sc measured after 24 hrs; format: organism-based; conditions: in vivo
# [6] = Toxicity in KM mouse assessed as change in RBC count at 20 mg/kg, sc measured after 24 hrs; format: organism-based, Erythrocyte; conditions: in vivo
# Staphylococcus aureus [7] = assay: Disruption of cell membrane in methicillin-resistant Staphylococcus aureus clinical isolate M-4 assessed as increase in red fluorescence at 4 ug/ml incubated for 4 hrs by DAPI/PI staining based laser confocal microscopy; format: functional, organism-based; conditions: dose 4.0 µg/ml
# Staphylococcus aureus [8] = assay: Bactericidal activity against Staphylococcus aureus ATCC 29213 at 4 to 8 times MIC by time kill assay; format: functional, organism-based; conditions: TDE = time-dependent effect
# Staphylococcus aureus [9] = assay: Disruption of cell membrane in methicillin-resistant Staphylococcus aureus clinical isolate M-4 assessed as fold increase in intracellular ROS level at 32 ug/ml incubated for 1 hr by DCFH-DA dye based analysis relative to control; format: functional; conditions: dose 32 µg/ml
# [10] = Toxicity in KM mouse assessed as change in WBC count at 20 mg/kg, sc measured after 24 hrs; format: organism-based; conditions: in vivo
# Staphylococcus aureus [11] = assay: Disruption of cell membrane in methicillin-resistant Staphylococcus aureus clinical isolate M-4 assessed as cell membrane rupture at 8 times MIC incubated for 1 hr by SEM analysis; format: functional, organism-based
# Staphylococcus aureus [12] = assay: Antibacterial activity against methicillin-resistant Staphylococcus aureus clinical isolate M-4 upto 128 ug/ml incubated for 16 to 18 hrs in presence of peptidoglycan by broth dilution method; format: functional, organism-based; conditions: dose <= 128.0 µg/ml, time 16-18 hrs
# Staphylococcus aureus [13] = assay: Bactericidal activity against Staphylococcus aureus ATCC 29213 at 8 times MIC incubated for 1 hr by time kill assay relative to control; format: functional
# Staphylococcus aureus [14] = assay: Antibacterial activity against methicillin-resistant Staphylococcus aureus clinical isolate M-4 incubated for 16 to 18 hrs CLSI based by microbroth dilution assay; format: functional; conditions: time 16-18 hrs
# Staphylococcus aureus [15] = assay: Induction of resistance development in Staphylococcus aureus ATCC 29213 at MIC measured after 20 passages; format: functional
# Staphylococcus aureus [16] = assay: Antibacterial activity against methicillin-resistant Staphylococcus aureus clinical isolate M-10 incubated for 16 to 18 hrs CLSI based by microbroth dilution assay; format: functional; conditions: time 16-18 hrs
# Staphylococcus aureus [17] = assay: Induction of resistance development in Staphylococcus aureus ATCC 29213 assessed as fold increase in MIC at MIC measured after 17 passages relative to control; format: functional
# [18] = Toxicity in KM mouse infected with methicillin-resistant Staphylococcus aureus clinical isolate M-4 assessed as histopathological abnormality in kidneys at 5 to 10 mg/kg, sc measured after 24 hrs by H and E staining based analysis; format: organism-based; conditions: in vivo, dose 5-10 mg/kg
# [19] = Toxicity in KM mouse assessed as histological abnormality in kidney at 20 mg/kg, sc measured after 24 hrs by H and E staining based analysis; format: organism-based; conditions: in vivo
# [20] = Toxicity in KM mouse assessed as change in albumin level at 20 mg/kg, sc measured after 24 hrs; format: organism-based; conditions: in vivo
# Staphylococcus aureus [21] = assay: Antibacterial activity against methicillin-resistant Staphylococcus aureus clinical isolate M-7 incubated for 16 to 18 hrs CLSI based by microbroth dilution assay; format: functional; conditions: time 16-18 hrs
# [22] = Cytotoxicity against human L02 cells assessed as cell survival at 16 ug/ml by MTT assay relative to control; format: toxicity, cell-based; conditions: at 16 µg/mL, read-out: Survival
# Staphylococcus aureus [23] = assay: Bactericidal activity against methicillin-resistant Staphylococcus aureus clinical isolate M-4 by time kill assay; format: functional, organism-based
# Staphylococcus aureus [24] = assay: Bactericidal activity against Staphylococcus aureus ATCC 29213 at 4 times MIC incubated for 2 hrs by time kill assay relative to control; format: functional
# Staphylococcus aureus [25] = assay: Antibacterial activity against methicillin-resistant Staphylococcus aureus clinical isolate M-4 infected in KM mouse assessed as reduction in skin inflammation at 10 mg/kg, sc measured after 24 hrs by H and E staining based analysis; format: functional, organism-based
# Staphylococcus aureus [26] = assay: Antibacterial activity against methicillin-resistant Staphylococcus aureus clinical isolate M-9 incubated for 16 to 18 hrs CLSI based by microbroth dilution assay; format: functional; conditions: time 16-18 hrs
# Staphylococcus aureus [27] = assay: Antibacterial activity against Staphylococcus aureus ATCC 29213 at 1 ug/ml in presence of exogenous DNA; format: functional, organism-based; conditions: dose 1.0 µg/ml
# [28] = Toxicity in KM mouse assessed as change in mean corpuscular volume at 20 mg/kg, sc measured after 24 hrs; format: organism-based; conditions: in vivo
# [29] = Toxicity in KM mouse assessed as histological abnormality in lungs at 20 mg/kg, sc measured after 24 hrs by H and E staining based analysis; format: organism-based; conditions: in vivo
# Staphylococcus aureus [30] = assay: Disruption of cell membrane in methicillin-resistant Staphylococcus aureus clinical isolate M-4 assessed as increase in red fluorescence incubated for 2 hrs by SYTO9/PI staining based flow cytometry; format: functional, organism-based; conditions: dose 4-64 µg/ml
# Staphylococcus aureus [31] = assay: Antibacterial activity against methicillin-resistant Staphylococcus aureus clinical isolate M-4 infected in KM mouse assessed as decrease in abnormality in skin area at 10 mg/kg, sc measured after 24 hrs by H and E staining based analysis; format: functional, organism-based
# Staphylococcus aureus [32] = assay: Antibacterial activity against methicillin-resistant Staphylococcus aureus clinical isolate M-2 incubated for 16 to 18 hrs CLSI based by microbroth dilution assay; format: functional; conditions: time 16-18 hrs
# [33] = Toxicity in KM mouse infected with methicillin-resistant Staphylococcus aureus clinical isolate M-4 assessed as histopathological abnormality in heart at 5 to 10 mg/kg, sc measured after 24 hrs by H and E staining based analysis; format: organism-based; conditions: in vivo, dose 5-10 mg/kg
# [34] = Toxicity in KM mouse assessed as change in platelet count at 20 mg/kg, sc measured after 24 hrs; format: organism-based; conditions: in vivo
# Staphylococcus aureus [35] = assay: Antibacterial activity against methicillin-resistant Staphylococcus aureus clinical isolate M-3 incubated for 16 to 18 hrs CLSI based by microbroth dilution assay; format: functional; conditions: time 16-18 hrs
# Staphylococcus aureus [36] = assay: Disruption of cell membrane in methicillin-resistant Staphylococcus aureus clinical isolate M-4 assessed as rough cell membrane at 8 times MIC incubated for 1 hr by SEM analysis; format: functional, organism-based
# Staphylococcus aureus [37] = assay: Antibacterial activity against methicillin-resistant Staphylococcus aureus clinical isolate M-5 incubated for 16 to 18 hrs CLSI based by microbroth dilution assay; format: functional; conditions: time 16-18 hrs
# Staphylococcus aureus [38] = assay: Bactericidal activity against Staphylococcus aureus ATCC 29213 by time kill assay; format: functional, organism-based
# [39] = Stability in sheep plasma at MBC measured for 6 hrs; format: ADME, cell-free, Ovis aries
# [40] = Cytotoxicity against human L02 cells assessed as cell survival at 32 ug/ml by MTT assay relative to control; format: toxicity, cell-based; conditions: at 32 µg/mL, read-out: Survival
structure (smiles),measurement,setting,value
CCCCCNC(=O)C[N+](C)(C)CCCCn1c(-c2ccc(N(C)C)cc2)nc2c3ccccc3c3ccccc3c21.[Br-],Activity,Staphylococcus aureus [1],Active
same,Activity,[2],Non-Toxic
same,survival at 10 mg/kg,Staphylococcus aureus [3],0.01%
same,Activity,[4],Non-Toxic
same,Activity,[5],Non-Toxic
same,Activity,[6],Non-Toxic
same,Activity,Staphylococcus aureus [7],Active
same,Activity,Staphylococcus aureus [8],Tde
same,fold change (FC),Staphylococcus aureus [9],~3
same,Activity,[10],Non-Toxic
same,Activity,Staphylococcus aureus [11],Active
same,Activity,Staphylococcus aureus [12],Active
same,Activity,Staphylococcus aureus [13],100%
same,MIC,Staphylococcus aureus [14],0.5 µg/mL
same,Activity,Staphylococcus aureus [15],inactive
same,MIC,Staphylococcus aureus [16],1 µg/mL
same,fold change (FC),Staphylococcus aureus [17],128
same,Activity,[18],Non-Toxic
same,Activity,[19],Non-Toxic
same,Activity,[20],Non-Toxic
same,MIC,Staphylococcus aureus [21],0.5 µg/mL
same,viability at 16 ug/ml,[22],100%
same,Activity,Staphylococcus aureus [23],Dose-Dependent Effect
same,Activity,Staphylococcus aureus [24],100%
same,Activity,Staphylococcus aureus [25],Active
same,MIC,Staphylococcus aureus [26],0.5 µg/mL
same,Activity,Staphylococcus aureus [27],Active
same,Activity,[28],Non-Toxic
same,Activity,[29],Non-Toxic
same,Activity,Staphylococcus aureus [30],Dose-Dependent Effect
same,Activity,Staphylococcus aureus [31],Active
same,MIC,Staphylococcus aureus [32],1 µg/mL
same,Activity,[33],Non-Toxic
same,Activity,[34],Non-Toxic
same,MIC,Staphylococcus aureus [35],1 µg/mL
same,Activity,Staphylococcus aureus [36],Active
same,MIC,Staphylococcus aureus [37],2 µg/mL
same,Activity,Staphylococcus aureus [38],Dose-Dependent Effect
same,Stability,[39],Stable
same,viability at 32 ug/ml,[40],> 72.2%
